{"source": "patent US9815777B2", "about": "“Metformin salts to treat Type2 diabetes” (Jiva Pharma, Inc., priority 2013, dated 2017)", "key": {"[1]": {"tested_on": "Female db/db B6BKS (D) Leprdb/J mice", "assay": "Oral glucose tolerance test (GTT) on day 26 in db/db mice", "format": "in vivo, mouse", "source_text": "(§1) The anti-diabetic activity of Met.TZ was examined in a standard mouse model of diabetes, in comparison to the front-line anti-diabetes drug metformin hydrochloride. Female db/db B6BKS (D) Leprdb/J mice of approximately 6.5 to 9.5 weeks old were used for this study. This is a standard genetic model of obesity related insulin resistance and diabetes, and has served as model animal for the development and analysis of many metabolically active drugs.\n(§2) Two treatment groups of six female mice were administered Met.TZ (MetX), at dose levels of 44.7 mg/kg/dose or 149 mg/kg/dose. Two treatment groups of six female mice were administered the test sample TZ (X), at dose levels of 21.2 mg/kg/dose or 70.8 mg/kg/dose Two treatment groups of six female mice were administered the positive control article, metformin hydrochloride, at dose levels of 30 mg/kg/dose or 100 mg/kg/dose. One additional group of six mice served as the control and received the test article vehicle, water. All drugs and vehicle solutions were administered daily during the study via oral gavage at a dose volume of 5 mL/kg. Body weights were measured three times per week, at the time of glucose measurements.\n(§3) Blood samples for glucose analysis were collected three times per week beginning on Day 1 through Day 26. Animals were fasted for 6 hours prior to glucose testing. On Days 1 through 12, the test article, positive control, and vehicle were administered after completion of the glucose testing. On Days 15 through 24 the dosing occurred approximately 90 minutes prior to glucose testing. On Day 26, a glucose tolerance test (GTT) was performed. The animals were administered a glucose solution at a dose level of 2 g/kg and a dose volume of 5 mL/kg. Blood collection for glucose measurements were collected predose, and at 0.5, 1, 1.5, 2, and 3 hours following administration of the glucose solution."}, "[2]": {"tested_on": "Female db/db B6BKS (D) Leprdb/J mice", "assay": "Fasting blood glucose in db/db mouse model of diabetes, daily oral gavage", "format": "in vivo", "settings": "for Fasting Blood Glucose (% changes from vehicle control): 6 h fast; for Blood glucose lowering compared with the equivalent dose of metformin (in words): difference not statistically significant", "source_text": "as §1, §2, §3"}}, "note": "“Also recorded” adds a separate entry of the source. Structures can show the parent of a compound that is named as a salt.", "data": [{"smiles": "CN(C)C(=N)NC(=N)N.O=C1CSC(=O)N1", "note": "[Met.TZ, Metformin thiazolidine-2,4-dione-3-ide]", "values": [{"measurement": "GTT glucose curve versus control animals (Veh), significance", "setting": "[1]; P<0.05 by ANOVA, means of 6 animals", "value": "significantly different than that from control animals"}, {"measurement": "Glucose levels post glucose administration compared with the equivalent dose of metformin (in words)", "setting": "[1]; every time point, 149 mg/kg/day vs metformin 100 mg/kg/day, difference not statistically significant", "value": "lower glucose levels than animals treated with the equivalent dose of metformin"}, {"measurement": "Glucose tolerance (in words)", "setting": "[1]; glucose 2 g/kg, 149 mg/kg/day", "value": "striking improvement in glucose tolerance"}, {"measurement": "Glucose lowering activity (in words)", "setting": "[2]; 149 mg/kg (equivalent to metformin 100 mg/kg), from day 17 until termination of the study", "value": "striking glucose lowering activity"}, {"measurement": "Fasting Blood Glucose (% changes from vehicle control)", "setting": "[2]; day 15 of treatment, 149 mg/kg/day oral gavage", "value": "−13", "unit": "%"}, {"measurement": "Fasting Blood Glucose (% changes from vehicle control)", "setting": "[2]; day 17 of treatment, 149 mg/kg/day oral gavage", "value": "−51", "unit": "%"}, {"measurement": "Fasting Blood Glucose (% changes from vehicle control)", "setting": "[2]; day 19 of treatment, 149 mg/kg/day oral gavage", "value": "−33", "unit": "%"}, {"measurement": "Fasting Blood Glucose (% changes from vehicle control)", "setting": "[2]; day 22 of treatment, 149 mg/kg/day oral gavage", "value": "−52", "unit": "%"}, {"measurement": "Blood glucose lowering compared with the equivalent dose of metformin (in words)", "setting": "[2]; db/db mice", "value": "more effective at lowering blood glucose than the equivalent dose of metformin; also recorded: lower glucose more than the equivalent dose of metformin hydrochloride alone"}, {"measurement": "Blood glucose lowering compared with the equivalent dose of metformin (in words)", "setting": "[2]; db/db mice, listed as 2,4-thiazolidinedione with metformin as its salt (1:1)", "value": "enhanced the glucose lowering effect of metformin"}]}, {"smiles": "CN(C)C(=N)N=C(N)N", "note": "[Metformin, metformin hydrochloride]", "values": [{"measurement": "Fasting Blood Glucose (% changes from vehicle control)", "setting": "[2]; day 15 of treatment, 100 mg/kg/day oral gavage", "value": "−9", "unit": "%"}, {"measurement": "Fasting Blood Glucose (% changes from vehicle control)", "setting": "[2]; day 17 of treatment, 100 mg/kg/day oral gavage", "value": "−34", "unit": "%"}, {"measurement": "Fasting Blood Glucose (% changes from vehicle control)", "setting": "[2]; day 19 of treatment, 100 mg/kg/day oral gavage", "value": "−7", "unit": "%"}, {"measurement": "Fasting Blood Glucose (% changes from vehicle control)", "setting": "[2]; day 22 of treatment, 100 mg/kg/day oral gavage", "value": "−43", "unit": "%"}]}, {"smiles": "O=C1CSC(=O)N1", "note": "[TZ, 2,4-thiazolidinedione]", "values": [{"measurement": "Fasting Blood Glucose (% changes from vehicle control)", "setting": "[2]; day 15 of treatment, 70.8 mg/kg/day oral gavage", "value": "+34%"}, {"measurement": "Fasting Blood Glucose (% changes from vehicle control)", "setting": "[2]; day 17 of treatment, 70.8 mg/kg/day oral gavage", "value": "−22", "unit": "%"}, {"measurement": "Fasting Blood Glucose (% changes from vehicle control)", "setting": "[2]; day 19 of treatment, 70.8 mg/kg/day oral gavage", "value": "+9%"}, {"measurement": "Fasting Blood Glucose (% changes from vehicle control)", "setting": "[2]; day 22 of treatment, 70.8 mg/kg/day oral gavage", "value": "−19", "unit": "%"}, {"measurement": "Hypoglycemic activity without any metformin (in words)", "setting": "[2]; db/db mice, same model", "value": "little effect on glucose lowering"}]}]}
